Values quoted from earlier work, collected in US20110263659A1, “Analogs of 1-Methylnicotinamide” (Cortria Corporation, priority 2008, published 2011).

What was measured:
[1] = tested on: prostacyclin (PGI2) release; details: preclinical; PCT/IB06/004013, PCT/EP05/050057, US 11/715,660
[2] = human subjects; studies from Smolenski et al.
[3] = di-hydro-MNA 1 mmol/kg s.c., HPLC

Row | increase of brain tissue levels of 1-MNA (factor) (di-hydro-MNA 1 mmol/kg s.c.) | increase in liver 1-MNA levels [3] | increase in plasma 1-MNA levels [3] | maximum 1-MNA levels in brain extracellular fluid (di-hydro-MNA 1-3 mmol/kg s.c.) | Compound | ability to stimulate the release of prostacyclin (PGI2) [1] | half life [2]
1 |  |  |  |  | 1-Methylnicotinamide [1-MNA] | ability to stimulate the release of prostacyclin (PGI2) | 2 to 3 h
2 | twenty | 9 fold | 4 fold | > 10 µM | CN1C=CCC(C(N)=O)=C1 [di-hydro-MNA, 1,4-dihydro-1-methylnicotinamide] |  | 
